Series [1] is described as follows: Inclusion (droplet) diameter in silicone/latanoprost cores, scanning electron micrographs. The following applies: for average inclusion diameter and standard deviation: latanoprost-silicone mixture, n=40 inclusion; for average diameter of latanoprost droplets: silicone matrix. The series is classed as physicochemical. As to the method: A two part silicone formulation (MED6385, Nusil Technologies) was used in the preparation of a composite resin containing latanoprost, which was used to fill a section of polyimide sheathing. The sheathing containing the polymerized silicone incorporates discrete latanoprost domains, existing in the form of droplets of less than about 25 μm maximum diameter, within the matrix. Several experiments were conducted.
Part A of the MED6385 silicone formulation was mixed with 0.43 μL of Part B, the tin catalyst, using syringes, to bring about partial coagulation of the polymer over 30 minutes. Then, 37 mg of that material was mixed with a premixed solution of 0.144 additional catalyst and 13 mg latanoprost, and that mixture could be further mixed by sonication with an ultrasonic probe. The resulting mixture was transferred to a syringe needle connected to a HP7x syringe adapter, which is connected to an EFD pump, which is in turn connected to a compressed air system and the delivery pressure set to 40 psi. The silicone-latanoprost mixture is then extruded down the length (10 cm) of polyimide tubing (IWG High Performance Conductors, Inc.). When the viscous mixture reached the bottom of polyimide tubing, clamps were applied at the bottom of the tubing and at the top connection with the syringe adapter, then pressure is released and the tubing section removed. The clamped section of tubing was placed in a humidity chamber (Thunder Scientific) for curing at 40° C. and 80% relative humidity (RH) for approximately 16-24 hrs.
Scanning electron micrographs of the sheath containing the cured matrix, i.e., the filled precursor sheath, are shown in FIG. 15A-D at the magnifications indicated. The inserts were sectioned cryogenically. FIGS. 15A and 15B, respectively, show the insert cores wherein the extrusion was carried at 40° C. (A) or 25° C. (B).
The temperature of the mixture, and of the associated apparatus involved in filling the polyimide sheath was held at various temperatures during the injection process. Among the temperatures used were a slightly elevated temperature (40° C.), approximate room temperature (25° C.), and subambient temperatures, such as 0° C., −5° C., and −25° C. The subambient injection procedures are provided in this Example.
Scanning electron micrographs of the sheath containing the cured matrix, i.e., the filled precursor sheath, are shown in FIG. 15A-D at the magnifications indicated. The inserts were sectioned cryogenically. FIGS. 15C and 15D show the results of extrusions carried out at 0° C. and −25° C. respectively. They can be compared with FIGS. 15A and 15B that were carried out at ambient temperature (25° C.) or above (40° C.).
Measurements of average inclusion diameters, and standard deviation thereof, are as shown: […]

In series [2] the test system is IOP. The conditions noted are these: cited from earlier work.

“And” between values parts separate entries of the source, which are not always exact repeats. Equal values may be shown once.

This is an account of results in patent US8628792B2, “Drug cores for sustained release of therapeutic agents” (Mati Therapeutics, Inc., priority 2007, dated 2014).

As to `CC(C)OC(=O)CCC/C=C\C[C@@H]1[C@@H](CC[C@@H](O)CCc2ccccc2)[C@H](O)C[C@@H]1O` [Latanoprost], the “average inclusion diameter and standard deviation” value is 0.006±0.002 mm in series [1] (Cold extrusion (−5° C.)); 0.019+0.019 mm and 0.019±0.019 mm in series [1] (Room temp (22° C.) extrusion). Further, in series [1] (MED6385 matrix, high pressure filling), the “maximum diameter of latanoprost droplets” value was “less than 25 μm”. Besides, the “average diameter of latanoprost droplets” value is on record as 6 μm in series [1] (cold extrusion (−5° C.)) and 19 μm in series [1] (extrusion at room temperature). The “duration of IOP lowering” value in series [2] (about 200 ng of drug remaining on the eye after a drop of Xalatan) was “at least 24 hours”. For the same molecule, the “IOP reduction relative to that of the 50 μg/mL QD dose” value in series [2] (lowest doses of 12.5 μg/mL QD or 15 μg/mL BID) is 60-75%.
